Results reported in patent US5955491A, “Method for treating osteoporosis” (Takeda Chemical Industries, Ltd., priority 1993, dated 1999).
Peptide text beside a SMILES is read from it. * marks the point of attachment. MeOSuc = COC(=O)CCC(=O)*; Cbz = O=C(OCc1ccccc1)*; Boc = CC(C)(C)OC(=O)*; Bz = O=C(c1ccccc1)*

Legend:
[1] = system: fetal rat forearm bones (radius and ulna), bone resorption; assay: Bone resorption suppressing action (^45 Ca release from cultured fetal rat forearm bones, method of Raisz); assay type: cell-based, Sprague-Dawley rat; details: 48 h, cultured two days, control = no test compound, mean of five bone fragments, read-out: Bone Resorption Inhibitory Activity [^45 Ca Release Rate (Percent to Control)]; for activity at 10 µg/mL: Concentration of Compound 10 μg/ml; for activity at 10 µM: Concentration of Compound 10 μM
Text: Specifically, one Sprague-Dawley rat, at 18 days of gestation, was given 50 μCi of ^45 Ca (calcium isotope, in CaCl2 solution) by subcutaneous injection. On the following day, the animal was laparotomized and fetal rats aseptically removed. Both forearm bones (radius and ulna) were cut out from the body of each fetus under an anatomical microscope, and connective tissue and cartilages were removed to the maximum possible extent, to prepare bone culture samples. Each bone fragment was pre-cultured at 37° C. for 24 hours in 0.6 ml of BGJb medium (Fitton-Jackson modification, GIBCO Laboratories, United States) prepared by adding bovine serum albumin (final concentration 2 mg/ml), after which it was transferred to the same medium as above but containing each compound (final concentration 10 μg/ml or 10 μM) and cultured for two more days. ^45 Ca radioactivity in the medium and ^45 Ca radioactivity in the bone were then measured, and the percent ratio of ^45 Ca released from the bone to the medium was calculated using the following equation: [formula]
For control, bone fractions from fetuses of the same litter were cultured for two days in the absence of the test compound. The mean q standard deviation for the values from five bone fragments in each group were calculated, and their percent ratios to the control were calculated.

human cathepsin L = biological target: T1, human cathepsin L (Homo sapiens, UniProt P07711); assay: Determination of human cathepsin L inhibitory activity (recombinant enzyme, Z-Phe-Arg-NMec substrate); assay type: biochemical; details: pH 5.5, 30° C., 10 minutes
T1 construct: made in house; host or cells: mouse myeloma Sp2/0 cells stably transformed with pTBN-HCLneo (Sp-HCL26); purified from serum-free culture supernatant on CM-Sephadex C-50 and Mono S
T1 sequence (P07711 114-333): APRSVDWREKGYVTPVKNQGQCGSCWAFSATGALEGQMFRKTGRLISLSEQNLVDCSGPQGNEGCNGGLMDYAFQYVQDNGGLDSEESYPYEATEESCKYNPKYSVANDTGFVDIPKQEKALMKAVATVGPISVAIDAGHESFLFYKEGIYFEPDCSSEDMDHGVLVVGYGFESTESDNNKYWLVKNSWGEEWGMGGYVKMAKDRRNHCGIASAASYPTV
Description: This fraction was applied to a Mono S column (HR5/5) of an FPLC system (produced by Pharmacia), followed by column washing and human cathepsin L elution in the same manner as above.
Experimental Example 8: Determination of human cathepsin L inhibitory activity
The recombinant human cathepsin L purified in Experimental Example 7 was diluted with a diluent [0.1% Brij 35 (produced by Sigma Chemical Company)] to a concentration of 1 μg/ml. To 1 μl of this enzyme dilution, 46 μl of the diluent, 2 μl of 0.1M DTT and 25 μl of an activator/buffer (340 mM sodium acetate, 60 mM acetic acid, 4 mM disodium EDTA, pH 5.5) were added. To this mixture were added a 1 μl sample, diluted to 10^-2 M with dimethyl sulfoxide (DMSO), and 25 μl of 20 μM Z-Phe-Arg-NMec (enzyme substrate solution), followed by incubation at 30° C. for 10 minutes, after which 100 μl of a reaction stopper (100 mM sodium monochloroacetate, 30 mM sodium acetate, 70 mM acetic acid, pH 4.3) was added. This reaction was carried out on a 96-well fluoroplate (produced by Labo Systems).
After the reaction was stopped, the fluorescence intensity of free aminomethylcoumarin was determined at a wavelength of 450 nm (excitation wavelength=365 nm), using a fluorometer FCA (produced by Baxter). For a control, 1 μl of sample-free DMSO was added instead; the fluorometric value obtained from this control reaction was taken as 100% activity.

Compound	IC50 (human cathepsin L)	activity at 10 µg/mL [1]	activity at 10 µM [1]
CC[C@H](C)[C@H](NS(=O)(=O)c1cccc2ccccc12)C(=O)N[C@H](CO)Cc1c[nH]c2ccccc12 [Example 3, N-(1-naphthylsulfonyl)-(L)-isoleucyl-(L)-tryptophanol]		49%	
O=C(N[C@H](CO)Cc1c[nH]c2ccccc12)C(Cc1ccccc1)Cc1ccccc1 [Example 26, N-dibenzylacetyl-(L)-tryptophanol]			79%
CC(C)[C@H](NC(=O)c1ccccc1)C(=O)N[C@H](CO)Cc1c[nH]c2ccccc12 [Example 38]			76%
CC[C@H](C)[C@H](NC(=O)OCc1ccccc1)C(=O)N[C@H](CO)Cc1cn(C(C)(C)C)c2ccccc12 [Example 59]			67%
Cc1ccc(CC(Cc2ccccc2)C(=O)N[C@H](CO)Cc2c[nH]c3ccccc23)cc1 (stereo partly shown) [Example 84]			74%
CC[C@H](C)[C@H](NS(=O)(=O)c1cccc2ccccc12)C(=O)N[C@H](C=O)Cc1c[nH]c2ccccc12 [Example 103, N-(1-naphthylsulfonyl)-(L)-isoleucyl-(L)-tryptophanal]		49%	
C[C@H](NS(=O)(=O)c1cccc2ccccc12)C(=O)N[C@H](C=O)Cc1c[nH]c2ccccc12 [Example 124]			79%
CC(C)[C@H](NC(=O)c1ccccc1)C(=O)N[C@H](C=O)Cc1c[nH]c2ccccc12 [Example 134] (Bz-Val-Trp-aldehyde)			66%
CC[C@H](C)[C@H](NS(=O)(=O)c1cccc2ccccc12)C(=O)N[C@@H](C)C=O [Example 153, N-(1-naphthylsulfonyl)-(L)-isoleucylalanal]			74%
CC[C@H](C)[C@H](NC(=O)OCc1ccccc1)C(=O)N[C@H](C=O)Cc1ccc(OC(C)C)cc1 [Example 157]			72%
CC[C@H](C)[C@H](NS(=O)(=O)c1cccc2ccccc12)C(=O)N[C@H](C=O)Cc1ccc(O)cc1 [Example 158]			65%
CC[C@@H](C=O)NC(=O)C(Cc1ccccc1)Cc1ccccc1 [Example 167]	0.043 µM		
CC(C)[C@@H](C=O)NC(=O)C(Cc1ccccc1)Cc1ccccc1 [Example 168]	0.026 µM		
CCOP(=O)(Cc1ccc(NC(=O)C(Cc2ccccc2)C(=O)N[C@H](C=O)Cc2c[nH]c3ccccc23)cc1)OCC (stereo partly shown) [Example 188]	0.037 µM		
O=C[C@H](Cc1c[nH]c2ccccc12)NC(=O)C(Cc1ccccc1)C(=O)N(Cc1ccccc1)Cc1ccccc1 (stereo partly shown) [Example 190]	0.055 µM		

The next lines start with results.

IC50 (human cathepsin L)	Compound	activity at 10 µg/mL [1]	activity at 10 µM [1]
0.011 µM	CC[C@H](C)[C@H](NC(=O)OCc1ccccc1)C(=O)N[C@H](C=O)Cc1c[nH]c2ccccc12 [Example 107]		
0.0054 µM	CC[C@H](C)[C@H](NC(=O)OCc1ccccc1)C(=O)N[C@H](C(=O)N[C@H](C=O)Cc1c[nH]c2ccccc12)[C@@H](C)CC [Example 108, N-(benzyloxycarhonyl)-(L)-isoleucyl-(L)-isoleucyl-(L)-tryptophanal] (Cbz-Ile-Ile-Trp-aldehyde)	42%	
0.01 µM	CC[C@H](C)[C@H](NC(=O)OC(C)(C)C)C(=O)N[C@H](C(=O)N[C@H](C=O)Cc1c[nH]c2ccccc12)[C@@H](C)CC [Example 109] (Boc-Ile-Ile-Trp-aldehyde)	38%	
0.016 µM	CC[C@H](C)[C@H](NC(=O)[C@@H](NS(=O)(=O)c1cccc2ccccc12)[C@@H](C)CC)C(=O)N[C@H](C=O)Cc1c[nH]c2ccccc12 [Example 110, N-(1-naphthylsulfonyl)-(L)-isoleucyl-(L)-isoleucyl-(L)-tryptophanal]	46%	
0.014 µM	CC[C@H](C)[C@H](NC(=O)CCC(=O)OC)C(=O)N[C@H](C(=O)N[C@H](C=O)Cc1c[nH]c2ccccc12)[C@@H](C)CC [Example 111] (MeOSuc-Ile-Ile-Trp-aldehyde)	32%	
0.38 µM	CC[C@H](C)[C@H](NC(=O)OCCC12CC3CC(CC(C3)C1)C2)C(=O)N[C@H](C(=O)N[C@H](C=O)Cc1c[nH]c2ccccc12)[C@@H](C)CC [Example 112]	43%	
0.048 µM	CC[C@H](C)[C@H](NC(=O)NCCC1CCCCC1)C(=O)N[C@H](C=O)Cc1c[nH]c2ccccc12 [Example 115, N-[(2-cyclohexylethyl)carbamoyl]-(L)-isoleucyl-(L)-tryptophanal]		
0.22 µM	CC[C@H](C)[C@H](NC(=O)[C@@H](NS(=O)(=O)c1cccc2ccccc12)[C@@H](C)CC)C(=O)NC(C=O)Cc1cccc2ccccc12 (stereo partly drawn) [Example 118, N-(1naphthylsulfonyl)-(L)-isoleucyl-(L)-isoleucyl-(DL)-(1-naphthyl)alaninal]		
0.032 µM	O=C[C@H](Cc1c[nH]c2ccccc12)NC(=O)C(Cc1ccccc1)Cc1ccccc1 [Example 122, N-dibenzylacetyl-(L)-tryptophanal]		73%
0.019 µM	O=C[C@H](Cc1c[nH]c2ccccc12)NC(=O)[C@H](Cc1ccccc1)NC(=O)c1ccccc1 [Example 128] (Bz-Phe-Trp-aldehyde)		73%
0.085 µM	CCCC(Sc1ccccc1)C(=O)N[C@H](C=O)Cc1c[nH]c2ccccc12 (stereo partly shown) [Example 129]		
0.00099 µM	CC(C)[C@H](NC(=O)OCc1ccccc1)C(=O)N[C@H](C=O)Cc1c[nH]c2ccccc12 [Example 132] (Cbz-Val-Trp-aldehyde)		74%
0.001 µM	CCCC(CCC)C(=O)N[C@H](C(=O)N[C@H](C=O)Cc1c[nH]c2ccccc12)C(C)C [Example 135, N-(2-propylpentanoyl)-(L)-valyl-(L)-tryptophanal]		45%
0.0017 µM	CC(C)C[C@H](NC(=O)c1ccccc1)C(=O)N[C@H](C=O)Cc1c[nH]c2ccccc12 [Example 143]		
0.0024 µM	CCCC(CCC)C(=O)N[C@@H](CC(C)C)C(=O)N[C@H](C=O)Cc1c[nH]c2ccccc12 [Example 144]		60%
0.0061 µM	CC[C@H](C)[C@H](NC(=O)OC(C)(C)C)C(=O)N[C@H](C=O)Cc1cn(C)c2ccccc12 [Example 150]		
0.00095 µM	CC[C@H](C)[C@H](NS(=O)(=O)c1cccc2ccccc12)C(=O)N[C@H](C=O)Cc1ccccc1 [Example 154, N-(1-naphthylsulfonyl)-(L)-isoleucyl-(L)-phenylalaninal]		
0.019 µM	CC(C)C[C@H](NS(=O)(=O)c1cccc2ccccc12)C(=O)N[C@@H](Cc1c[nH]c2ccccc12)C(=O)NCC=O [Example 175]		
0.0047 µM	O=C[C@H](Cc1c[nH]c2ccccc12)NC(=O)C(Cc1ccccc1)C(=O)NCc1ccccc1 (stereo partly shown) [Example 191]		
0.0042 µM	O=C[C@H](Cc1c[nH]c2ccccc12)NC(=O)C(c1ccccc1)c1ccccc1 [Example 192]		
0.0039 µM	CC[C@H](C)[C@H](NC(=O)c1cc(=O)c2ccccc2o1)C(=O)N[C@H](C=O)Cc1c[nH]c2ccccc12 [Example 193]		
